# Measured values: patent US20210116454A1, “METHODS FOR TREATING A HEMATOLOGICAL CANCER AND THE USE OF COMPANION BIOMARKERS FOR 2-(2,6-DIOXOPIPERIDIN-3-YL)-4-((2-FLUORO-4-((3-MORPHOLINOAZETIDIN-1-YL)METHYL)BENZYL)AMINO)ISOINDOLINE-1,3-DIONE” (CELGENE CORPORATION, priority 2019, published 2021)
# Like-named read-outs stand apart in the source and are kept apart here.
# Assays:
# Format in all cases: cell-based
# DLBCL cell lines = assay: Panel of twenty three DLBCL cell lines, 5-day viable cells and apoptosis
# Procedure: Compound 1 activity was evaluated in a panel of twenty three DLBCL cell lines. The DLBCL panel includes seven cell lines classified as activated B-cell (ABC) subtype, thirteen cell lines classified as the germinal center B-cell (GCB) subtype, and three cell lines classified as primary mediastinal B-cell lymphoma (PMBL). […] Thus, eleven cell lines have a t(8;14)(q24;q32) and/or t(14;18)(q32;q21.3), corresponding to MYC and BCL2 gene rearrangements into an immunoglobulin (IG) heavy chain locus as well as additional rearrangements affecting BCL6 (Table 1). The translocation of MYC, BCL6, or BCL2 to an IG locus usually leads to high levels of mRNA and protein due to the active transcription driven by a constitutively active IG promoter. Therefore, the protein levels of these genes were monitored by Western blots, confirming the overexpression of BCL2, MYC, and/or BCL6 in all the cell lines evaluated (FIG. 1, panel A). Expressions of CRBN protein and known substrates, Ikaros, Aiolos, and ZFP91 were also evaluated (FIG. 1, panels B and C).
# The panel of cell lines were treated with increasing doses of compounds for five days, at which time the number of viable cells was measured and the amount of apoptosis was determined by 7-AAD exclusion and Annexin V staining using flow cytometry. […] Overall, the sensitivity to Compound 1 was independent of cell of origin (COO), since ABC, GCB, and PMBL subtypes were sensitive to Compound 1 (Table 2).
# WSU-DLCL2 M-Parental = assay: Viable cells/apoptosis in doxorubicin-resistant and matching parental lines; conditions: for IC50: Homo sapiens
# Procedure: (§1) The activity of Compound 1 was also evaluated in cell lines with acquired resistance to doxorubicin (Table 4). Doxorubicin-resistant cell lines (DoxoR) were generated by culturing the parental cell lines in vitro with increasing concentrations of doxorubicin for a long period of time (˜9 to 18 months) until they were able to grow in the presence of a relatively high concentration of doxorubicin (1 μM). Matching parental (M-Parent) cells were generated by maintaining the parental cells in culture without treatment for the same amount of time (˜9 to 18 months). The growth-inhibitory effect of doxorubicin on parental cells and the corresponding resistant cells was evaluated by measuring the number of viable cells and extent of apoptosis by 7-AAD exclusion and Annexin V staining using flow cytometry.
# (§2) The effects of Compound 1 on the viability of doxorubicin-resistant versus parental cell lines was determined (FIG. 2; Table 5).
# U2932 DoxoR = assay: as above; conditions: for IC50: Homo sapiens
# Procedure: as §1, §2
# SU-DHL-4 M-Parental = assay: as above; conditions: for IC50: Homo sapiens
# Procedure: as §1, §2
# WSU-DLCL2 DoxoR = assay: as above; conditions: for IC50: Homo sapiens
# Procedure: as §1, §2
# U2932 M-Parental = assay: as above; conditions: for IC50: Homo sapiens
# Procedure: as §1, §2
# Oci-Ly10 M-Parental = assay: as above; conditions: for IC50: Homo sapiens
# Procedure: as §1, §2
# SU-DHL-4 DoxoR = assay: as above; conditions: for IC50: Homo sapiens
# Procedure: as §1, §2
# Oci-Ly10 DoxoR = assay: as above; conditions: for IC50: Homo sapiens
# Procedure: as §1, §2
# WSU-DLCL2 = assay: 5-day viable cell number and apoptosis (7-AAD exclusion/Annexin V flow cytometry)
# In short: (§3)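 Each lymphoma line in the panel receives increasing doses of compound. At day 5, viable cell number and apoptosis (Annexin V, 7-AAD exclusion by flow cytometry) are determined.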
# OCI-Ly10 = assay: as above
# In short: as §3
# U2932 = assay: as above
# In short: as §3
# [1] = WSUDLCL2, read-out: Doxorubicin IC50
# [2] = Homo sapiens, WSUDLCL2, WSU-DLCL2 cells (Table 3), read-out: IC50
# [3] = Homo sapiens, OCI-Ly10 cells (Table 3), read-out: IC50
# [4] = Homo sapiens, U2932 cells (Table 3), read-out: IC50
# [5] = WSUDLCL2, 120 h, 5 days, read-out: IC50
# [6] = Homo sapiens, WSUDLCL2, 120 h, WSU-DLCL2 cells, 5 days
# [7] = Homo sapiens, 120 h, OCI-Ly10 cells, 5 days
# [8] = Homo sapiens, 120 h, U2932 cells, 5 days
structure (smiles),measurement,setting,value
"COc1cccc2c1C(=O)c1c(O)c3c(c(O)c1C2=O)C[C@@](O)(C(=O)CO)C[C@@H]3O[C@H]1C[C@H](N)[C@H](O)[C@H](C)O1 [Doxorubicin, reference compound]",sensitivity of all DLBCL cell lines,DLBCL cell lines; panel of twenty three cell lines,strongly sensitive
same,IC50,WSU-DLCL2 M-Parental; [1],0.01 µM
same,IC50,"U2932 DoxoR; U2932 DoxoR, read-out: Doxorubicin IC50",1.08 µM
same,IC50,SU-DHL-4 M-Parental; read-out: Doxorubicin IC50,0.01 µM
same,IC50,WSU-DLCL2 DoxoR; [1],1.6 µM
same,IC50,U2932 M-Parental; read-out: Doxorubicin IC50,0.01 µM
same,IC50,"Oci-Ly10 M-Parental; Oci-Ly10 M-Parental, read-out: Doxorubicin IC50",0.02 µM
same,IC50,"SU-DHL-4 DoxoR; SU-DHL-4 DoxoR, read-out: Doxorubicin IC50",1.5 µM
same,IC50,"Oci-Ly10 DoxoR; Oci-Ly10 DoxoR, read-out: Doxorubicin IC50",1.4 µM
same,IC50,WSU-DLCL2; [2],1.5 µM
same,IC50,OCI-Ly10; [3],3 µM
same,IC50,U2932; [4],3 µM
"O=C1CC[C@H](N2C(=O)c3cccc(NCc4ccc(CN5CC(N6CCOCC6)C5)cc4F)c3C2=O)C(=O)N1 [Compound 1, (S)-2-(2,6-dioxopiperidin-3-yl)-4-((2-fluoro-4-((3-morpholinoazetidin-1-yl)methyl)benzyl)amino)isoindoline-1,3-dione]",IC50,"DLBCL cell lines; 120 h, eighteen of the twenty three lines, five days of treatment",0.001 to 0.4 µM
same,viable cells remaining (Emax),DLBCL cell lines; ten highly sensitive cell lines,less than 6%
same,IC50,WSU-DLCL2 M-Parental; [5],0.01 µM
same,Emax (% viable cells remaining),WSU-DLCL2 M-Parental; relative to DMSO,23%
same,IC50,"U2932 DoxoR; 120 h, U2932 DoxoR, 5 days, read-out: IC50",1.5 µM
same,Emax (% viable cells remaining),"U2932 DoxoR; U2932 DoxoR, relative to DMSO",31%
same,lower sensitivity in doxorubicin-resistant cells,U2932 DoxoR; U2932 doxorubicin-resistant vs M-parental,20 fold
same,IC50,"SU-DHL-4 M-Parental; 120 h, 5 days, read-out: IC50",> 10 µM
same,Emax (% viable cells remaining),SU-DHL-4 M-Parental; relative to DMSO,74%
same,IC50,WSU-DLCL2 DoxoR; [5],0.1 µM
same,Emax (% viable cells remaining),WSU-DLCL2 DoxoR; relative to DMSO,9%
same,IC50,"U2932 M-Parental; 120 h, 5 days, read-out: IC50",0.06 µM
same,Emax (% viable cells remaining),U2932 M-Parental; relative to DMSO,19%
same,IC50,"Oci-Ly10 M-Parental; OCI-Ly10, 120 h, Oci-Ly 10 M-Parental, 5 days, read-out: IC50",6 µM
same,Emax (% viable cells remaining),"Oci-Ly10 M-Parental; Oci-Ly 10 M-Parental, relative to DMSO",47%
same,IC50,"SU-DHL-4 DoxoR; 120 h, SU-DHL-4 DoxoR, 5 days, read-out: IC50",0.1 µM
same,Emax (% viable cells remaining),"SU-DHL-4 DoxoR; SU-DHL-4 DoxoR, relative to DMSO",8%
same,greater sensitivity in the doxorubicin-resistant cell line,SU-DHL-4 DoxoR; SU-DHL-4 doxorubicin-resistant vs parental,> 100 fold
same,IC50,"Oci-Ly10 DoxoR; OCI-Ly10, 120 h, Oci-Ly 10 DoxoR, 5 days, read-out: IC50",0.3 µM
same,greater sensitivity of resistant cells compared to parental cells,Oci-Ly10 DoxoR; OCI-Ly10 doxorubicin-resistant vs parental,approximately 20 fold
same,Emax (% viable cells remaining),"Oci-Ly10 DoxoR; Oci-Ly 10 DoxoR, relative to DMSO",22%
same,EC50,WSU-DLCL2; [6],0.077 µM
same,Emax,WSU-DLCL2; [6],47.8%
same,IC50,"WSU-DLCL2; Homo sapiens, WSUDLCL2, 120 h, WSU-DLCL2 cells, 5 days, read-out: % Viable Cells IC50",0.02 µM
same,IC50,WSU-DLCL2; [2],174 µM
same,% Viable Cells AUC,"WSU-DLCL2; WSU-DLCL2 cells, 5 days",173.8
same,% Viable Cells Emax,"WSU-DLCL2; WSU-DLCL2 cells, 5 days",1.36%
same,% Viable Cells Sensitivity,"WSU-DLCL2; WSU-DLCL2 cells, 5 days",High (highly sensitive to Compound 1 with less than 6% viable cells remaining (Emax) after treatment)
same,Apoptosis AUC,"WSU-DLCL2; WSU-DLCL2 cells, 5 days",464.5
same,Apoptosis Sensitivity,"WSU-DLCL2; WSU-DLCL2 cells, 5 days",High
same,EC50,OCI-Ly10; [7],2.09 µM
same,Emax,OCI-Ly10; [7],29.4%
same,IC50,"OCI-Ly10; Homo sapiens, 120 h, OCI-Ly10 cells, 5 days, read-out: % Viable Cells IC50",0.05 µM
same,IC50,OCI-Ly10; [3],267 µM
same,% Viable Cells AUC,"OCI-Ly10; OCI-Ly10 cells, 5 days",267.3
same,% Viable Cells Emax,"OCI-Ly10; OCI-Ly10 cells, 5 days",19.19%
same,% Viable Cells Sensitivity,"OCI-Ly10; OCI-Ly10 cells, 5 days",Intermediate (intermediate sensitivity with 15% to 55% cell viability)
same,Apoptosis AUC,"OCI-Ly10; OCI-Ly10 cells, 5 days",187.7
same,Apoptosis Sensitivity,"OCI-Ly10; OCI-Ly10 cells, 5 days",Intermediate
same,EC50,U2932; [8],11.9 µM
same,Emax,U2932; [8],69.9%
same,IC50,"U2932; Homo sapiens, 120 h, U2932 cells, 5 days, read-out: % Viable Cells IC50",0.1 µM
same,IC50,U2932; [4],327 µM
same,% Viable Cells AUC,"U2932; U2932 cells, 5 days",327.1
same,% Viable Cells Emax,"U2932; U2932 cells, 5 days",24.81%
same,% Viable Cells Sensitivity,"U2932; U2932 cells, 5 days",Intermediate (intermediate sensitivity with 15% to 55% cell viability)
same,Apoptosis AUC,"U2932; U2932 cells, 5 days",280.5
same,Apoptosis Sensitivity,"U2932; U2932 cells, 5 days",Intermediate
